Measurements as given in patent US9233161B2, “Compositions and methods for the treatment of neurological conditions” (CELLIX BIO PRIVATE LIMITED, priority 2012, dated 2016).

System: Rat Model of Neuropathic Pain
Test: Mechanic pain test (Randall-Sellitio method) in a rat model of neuropathic pain (loose ligation of the right sciatic nerve)
Assay type: in vivo
Settings: i.p., 40, 60 mg/kg equivalent of milnacipran, 15 days after surgery, tested for 2 h every 30 min, compared with milnacipran
Method: The Effect of Milnacipran and Formula I (1-1) on Nociception in a Rat Model of Neuropathic Pain
After the preoperative pain thresholds of rats determined by mechanic pain test (Randall-Sellitio method), peripheric neuropathy was formed by loose ligating the right sciatic nevre. An identical procedure was performed without ligating on the left side (sham-operation). 15 days after surgical procedure postoperative pain thresholds were determined and saline and drugs were administered via intraperitoneal (i.p) route. Drugs groups were planned as milnacipran (40, 60, 80 mg/kg), Formula I (1-1) (20, 40, 60 mg/kg equivalent of milnacipran), After saline and drug injection, the test was repeated for 2 h in every 30 min. Pain thresholds were given as mean, SEM from % values. Spontaneous locomotor activity was measured by an activity cage and movements were quantified as the total of ambulatory and stereotypic behaviour. Statistical evaluation was made with one way variance analysis (ANOVA) followed by LSD test.

CCN(CC)C(=O)[C@]1(c2ccccc2)CC1CNC(=O)CCCC[C@]1(C)CCSS1 (stereo partly shown) [Formula I (1-1)]
antinociceptive effect (pain thresholds): more potent antinociceptive effect
